Reference: the NIST ThermoML archive (doi:10.1021/je060271a)
± gives the expanded uncertainty stated by the source.

Details: 343.14 K, Liquid, Vibrating tube method

CCCCCCC(=O)OCC(COC(=O)CCCCCC)(COC(=O)CCCCCC)COC(=O)CCCCCC [pentaerythritol tetraheptanoate]
Details | mass density [kg/m3]
22987 kPa | 957 ± 1.2
23023 kPa | 956.9 ± 1.2
23067 kPa | 956.9 ± 1.2
23104 kPa | 956.9 ± 1.2
23148 kPa | 957 ± 1.2
23186 kPa | 957 ± 1.2
23224 kPa | 956.9 ± 1.2
23269 kPa | 957.1 ± 1.2
23308 kPa | 957.1 ± 1.2
23346 kPa | 957.1 ± 1.2
23393 kPa | 957.2 ± 1.2
23433 kPa | 957.2 ± 1.2
23473 kPa | 957.2 ± 1.2
23512 kPa | 957.2 ± 1.2
23551 kPa | 957.3 ± 1.2
23582 kPa | 957.3 ± 1.2
23619 kPa | 957.3 ± 1.2
23650 kPa | 957.2 ± 1.2
23719 kPa | 957.3 ± 1.2
23782 kPa | 957.3 ± 1.2
23820 kPa | 957.3 ± 1.2
23852 kPa | 957.4 ± 1.2
23887 kPa | 957.4 ± 1.2
23919 kPa | 957.4 ± 1.2
23957 kPa | 957.4 ± 1.2
23990 kPa | 957.4 ± 1.2
24022 kPa | 957.6 ± 1.2
24061 kPa | 957.7 ± 1.2
24094 kPa | 957.5 ± 1.2
24160 kPa | 957.5 ± 1.2
24588 kPa | 957.9 ± 1.2
24654 kPa | 957.9 ± 1.2
24695 kPa | 958 ± 1.2
24730 kPa | 958.1 ± 1.2
24765 kPa | 958 ± 1.2
24806 kPa | 958 ± 1.2
24840 kPa | 958.1 ± 1.2
25030 kPa | 958.1 ± 1.2
25067 kPa | 958.2 ± 1.2
25103 kPa | 958.2 ± 1.2
25183 kPa | 958.1 ± 1.2
25215 kPa | 958.2 ± 1.2
25436 kPa | 958.5 ± 1.2
25465 kPa | 958.5 ± 1.2
25501 kPa | 958.5 ± 1.2
26973 kPa | 959.4 ± 1.2
27040 kPa | 959.4 ± 1.2
27491 kPa | 959.6 ± 1.2
27527 kPa | 959.7 ± 1.2
27558 kPa | 959.9 ± 1.2
27645 kPa | 960 ± 1.2
27672 kPa | 959.9 ± 1.2
27705 kPa | 959.9 ± 1.2
27733 kPa | 959.9 ± 1.2
27761 kPa | 959.9 ± 1.2
27793 kPa | 959.9 ± 1.2
